Assays:
Assay type in all cases: in vivo
[1] = system: Abutilon theophrasti Medic.; assay: Bioassay of herbicidal activity in greenhouse (further screening)
Procedure, shortened: (§1)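 Visual growth inhibition rating (0 no effect to 100 all weeds dead or not emerged) after track-sprayer application (500 L/hm²) of emulsifiable concentrate. Treatments either pre-emergence, 24 h after sowing, or post-emergence at 2–3-leaf grass and 2–4-leaf broad-leaf stage, greenhouse-grown.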

[2] = system: Echinochloa crus-galli (L.) Beauv.; assay: as above
Procedure, shortened: as §1

[3] = system: Setaria glauca (L.) Beauv.; assay: as above
Procedure, shortened: as §1

Zinnia elegans Jacq. = assay: as above
Procedure, shortened: as §1

[4] = system: broad-leaf weeds and grass weeds; assay: General screening of herbicidal activity in greenhouse; conditions: 1000 g a.i./hm^2
Procedure, shortened: as §1

## Cn1c(C(F)(F)F)cc(=O)n(-c2cc(C3=NOC(C)(COC(=O)CCc4ccccc4)C3)c(Cl)cc2F)c1=O (stereo not shown) [Compound 55]
[1]; dose 37.5 g a.i./hm^2
  Growth inhibition rate, Post-emergence treatment, Abutilon theophrasti Medic.: 100%
  Growth inhibition rate, Pre-emergence treatment, Abutilon theophrasti Medic.: 5%
[1]; dose 150 g a.i./hm^2
  Growth inhibition rate, Post-emergence treatment, Abutilon theophrasti Medic.: 100%
  Growth inhibition rate, Pre-emergence treatment, Abutilon theophrasti Medic.: 20%
[1]; dose 600 g a.i./hm^2
  Growth inhibition rate, Post-emergence treatment, Abutilon theophrasti Medic.: 100%
  Growth inhibition rate, Pre-emergence treatment, Abutilon theophrasti Medic.: 45%
[2]; dose 37.5 g a.i./hm^2
  Growth inhibition rate, Post-emergence treatment, Echinochloa crus-galli (L.) Beauv.: 20%
  Growth inhibition rate, Pre-emergence treatment, Echinochloa crus-galli (L.) Beauv.: 0%
[2]; dose 150 g a.i./hm^2
  Growth inhibition rate, Post-emergence treatment, Echinochloa crus-galli (L.) Beauv.: 35%
  Growth inhibition rate, Pre-emergence treatment, Echinochloa crus-galli (L.) Beauv.: 20%
[2]; dose 600 g a.i./hm^2
  Growth inhibition rate, Post-emergence treatment, Echinochloa crus-galli (L.) Beauv.: 45%
  Growth inhibition rate, Pre-emergence treatment, Echinochloa crus-galli (L.) Beauv.: 40%
[3]; dose 37.5 g a.i./hm^2
  Growth inhibition rate, Post-emergence treatment, Setaria glauca (L.) Beauv.: 30%
  Growth inhibition rate, Pre-emergence treatment, Setaria glauca (L.) Beauv.: 0%
[3]; dose 150 g a.i./hm^2
  Growth inhibition rate, Post-emergence treatment, Setaria glauca (L.) Beauv.: 75%
  Growth inhibition rate, Pre-emergence treatment, Setaria glauca (L.) Beauv.: 5%
[3]; dose 600 g a.i./hm^2
  Growth inhibition rate, Post-emergence treatment, Setaria glauca (L.) Beauv.: 90%
  Growth inhibition rate, Pre-emergence treatment, Setaria glauca (L.) Beauv.: 80%
Zinnia elegans Jacq.; dose 37.5 g a.i./hm^2
  Growth inhibition rate, Post-emergence treatment, Zinnia elegans Jacq.: 100%
  Growth inhibition rate, Pre-emergence treatment, Zinnia elegans Jacq.: 0%
Zinnia elegans Jacq.; dose 150 g a.i./hm^2
  Growth inhibition rate, Post-emergence treatment, Zinnia elegans Jacq.: 100%
  Growth inhibition rate, Pre-emergence treatment, Zinnia elegans Jacq.: 5%
Zinnia elegans Jacq.; dose 600 g a.i./hm^2
  Growth inhibition rate, Post-emergence treatment, Zinnia elegans Jacq.: 100%
  Growth inhibition rate, Pre-emergence treatment, Zinnia elegans Jacq.: 80%
[4]
  pre-emergence and post-emergence herbicidal activity against broad-leaf weeds and grass weeds: good

## Cn1c(C(F)(F)F)cc(=O)n(-c2cc(C3=NOC(C)(C(=O)OCC4CCCO4)C3)c(Cl)cc2F)c1=O (stereo not shown) [Compound 398]
[1]; dose 7.5 g a.i./hm^2
  Growth inhibition rate, Post-emergence treatment, Abutilon theophrasti Medic.: 98%
[1]; dose 15 g a.i./hm^2
  Growth inhibition rate, Post-emergence treatment, Abutilon theophrasti Medic.: 98%
[1]; dose 30.0 g a.i./hm^2
  Growth inhibition rate, Post-emergence treatment, Abutilon theophrasti Medic.: 100%
[1]; dose 60.0 g a.i./hm^2
  Growth inhibition rate, Post-emergence treatment, Abutilon theophrasti Medic.: 100%
[1]; dose 120.0 g a.i./hm^2
  Growth inhibition rate, Post-emergence treatment, Abutilon theophrasti Medic.: 100%
[2]; dose 7.5 g a.i./hm^2
  Growth inhibition rate, Post-emergence treatment, Echinochloa crus-galli (L.) Beauv.: 65%
[2]; dose 15 g a.i./hm^2
  Growth inhibition rate, Post-emergence treatment, Echinochloa crus-galli (L.) Beauv.: 75%
[2]; dose 30.0 g a.i./hm^2
  Growth inhibition rate, Post-emergence treatment, Echinochloa crus-galli (L.) Beauv.: 95%
[2]; dose 60.0 g a.i./hm^2
  Growth inhibition rate, Post-emergence treatment, Echinochloa crus-galli (L.) Beauv.: 100%
[2]; dose 120.0 g a.i./hm^2
  Growth inhibition rate, Post-emergence treatment, Echinochloa crus-galli (L.) Beauv.: 100%
[3]; dose 7.5 g a.i./hm^2
  Growth inhibition rate, Post-emergence treatment, Setaria glauca (L.) Beauv.: 55%
[3]; dose 15 g a.i./hm^2
  Growth inhibition rate, Post-emergence treatment, Setaria glauca (L.) Beauv.: 95%
[3]; dose 30.0 g a.i./hm^2
  Growth inhibition rate, Post-emergence treatment, Setaria glauca (L.) Beauv.: 100%
[3]; dose 60.0 g a.i./hm^2
  Growth inhibition rate, Post-emergence treatment, Setaria glauca (L.) Beauv.: 100%
[3]; dose 120.0 g a.i./hm^2
  Growth inhibition rate, Post-emergence treatment, Setaria glauca (L.) Beauv.: 100%
Zinnia elegans Jacq.; dose 7.5 g a.i./hm^2
  Growth inhibition rate, Post-emergence treatment, Zinnia elegans Jacq.: 65%
Zinnia elegans Jacq.; dose 15 g a.i./hm^2
  Growth inhibition rate, Post-emergence treatment, Zinnia elegans Jacq.: 90%
Zinnia elegans Jacq.; dose 30.0 g a.i./hm^2
  Growth inhibition rate, Post-emergence treatment, Zinnia elegans Jacq.: 100%
Zinnia elegans Jacq.; dose 60.0 g a.i./hm^2
  Growth inhibition rate, Post-emergence treatment, Zinnia elegans Jacq.: 100%
Zinnia elegans Jacq.; dose 120.0 g a.i./hm^2
  Growth inhibition rate, Post-emergence treatment, Zinnia elegans Jacq.: 100%
[4]
  pre-emergence and post-emergence herbicidal activity against broad-leaf weeds and grass weeds: good

## CC(C)OC(=O)C1(C)CC(c2cc(-n3c(=O)cc(C(F)(F)F)n(C)c3=O)c(F)cc2Cl)=NO1 (stereo not shown) [Compound 10]
[1]; dose 7.5 g a.i./hm^2
  Growth inhibition rate, Post-emergence treatment, Abutilon theophrasti Medic.: 100%
[1]; dose 15 g a.i./hm^2
  Growth inhibition rate, Post-emergence treatment, Abutilon theophrasti Medic.: 100%
[1]; dose 30.0 g a.i./hm^2
  Growth inhibition rate, Post-emergence treatment, Abutilon theophrasti Medic.: 100%
[1]; dose 60.0 g a.i./hm^2
  Growth inhibition rate, Post-emergence treatment, Abutilon theophrasti Medic.: 100%
[1]; dose 120.0 g a.i./hm^2
  Growth inhibition rate, Post-emergence treatment, Abutilon theophrasti Medic.: 100%
[2]; dose 7.5 g a.i./hm^2
  Growth inhibition rate, Post-emergence treatment, Echinochloa crus-galli (L.) Beauv.: 90%
[2]; dose 15 g a.i./hm^2
  Growth inhibition rate, Post-emergence treatment, Echinochloa crus-galli (L.) Beauv.: 98%
[2]; dose 30.0 g a.i./hm^2
  Growth inhibition rate, Post-emergence treatment, Echinochloa crus-galli (L.) Beauv.: 100%
[2]; dose 60.0 g a.i./hm^2
  Growth inhibition rate, Post-emergence treatment, Echinochloa crus-galli (L.) Beauv.: 100%
[2]; dose 120.0 g a.i./hm^2
  Growth inhibition rate, Post-emergence treatment, Echinochloa crus-galli (L.) Beauv.: 100%
[3]; dose 7.5 g a.i./hm^2
  Growth inhibition rate, Post-emergence treatment, Setaria glauca (L.) Beauv.: 90%
[3]; dose 15 g a.i./hm^2
  Growth inhibition rate, Post-emergence treatment, Setaria glauca (L.) Beauv.: 100%
[3]; dose 30.0 g a.i./hm^2
  Growth inhibition rate, Post-emergence treatment, Setaria glauca (L.) Beauv.: 100%
[3]; dose 60.0 g a.i./hm^2
  Growth inhibition rate, Post-emergence treatment, Setaria glauca (L.) Beauv.: 100%
[3]; dose 120.0 g a.i./hm^2
  Growth inhibition rate, Post-emergence treatment, Setaria glauca (L.) Beauv.: 100%
Zinnia elegans Jacq.; dose 7.5 g a.i./hm^2
  Growth inhibition rate, Post-emergence treatment, Zinnia elegans Jacq.: 100%
Zinnia elegans Jacq.; dose 15 g a.i./hm^2
  Growth inhibition rate, Post-emergence treatment, Zinnia elegans Jacq.: 100%
Zinnia elegans Jacq.; dose 30.0 g a.i./hm^2
  Growth inhibition rate, Post-emergence treatment, Zinnia elegans Jacq.: 100%
Zinnia elegans Jacq.; dose 60.0 g a.i./hm^2
  Growth inhibition rate, Post-emergence treatment, Zinnia elegans Jacq.: 100%
Zinnia elegans Jacq.; dose 120.0 g a.i./hm^2
  Growth inhibition rate, Post-emergence treatment, Zinnia elegans Jacq.: 100%
[4]
  pre-emergence and post-emergence herbicidal activity against broad-leaf weeds and grass weeds: good

Source: US10550111B2, “Pyrimidine urea compound containing isoxazolines and use thereof” (SHENYANG SINOCHEM AGROCHEMICALS R&D CO., LTD, priority 2014, dated 2020)
